Organism: Rattus norvegicus
Assay: DrugMatrix - Regimen: Daily Repeat
Type: toxicity, organism-based, Sprague-Dawley
Design: regimen Daily Repeat, gender Male, age 6-8 weeks
Details: in vivo, sc, route subcutaneous, […]; for ABSOLUTE BASOPHIL / ABSOLUTE EOSINOPHIL / ABSOLUTE LYMPHOCYTE / ABSOLUTE MONOCYTE / ABSOLUTE SEGMENTED NEUTROPHIL / BASOPHIL / EOSINOPHIL / ERYTHROCYTE COUNT / HEMATOCRIT / HEMOGLOBIN / LEUKOCYTE COUNT / LYMPHOCYTE / MEAN CORPUSCULAR HEMOGLOBIN / MEAN CORPUSCULAR HEMOGLOBIN CONCENTRATION / MEAN CORPUSCULAR VOLUME / MONOCYTE / NEUTROPHIL / NUCLEATED RED BLOOD CELLS / PLATELET COUNT: tissue Blood; for ALANINE AMINOTRANSFERASE / ALBUMIN / ALKALINE PHOSPHATASE / ASPARTATE AMINOTRANSFERASE / BLOOD UREA NITROGEN / CARBON DIOXIDE / CHLORIDE / CHOLESTEROL / CREATINE PHOSPHOKINASE / CREATININE / GLUCOSE / LACTATE DEHYDROGENASE / LIPASE / PHOSPHORUS / POTASSIUM / SODIUM / TOTAL BILIRUBIN / TOTAL PROTEIN / URIC ACID: tissue Plasma
[1] = 0 mg/kg, 72 h, dose level Control, time 3 day
[2] = 0 mg/kg, 120 h, dose level Control, time 5 day
[3] = 0.8 mg/kg, 72 h, dose level Low, time 3 day

Oc1c(Cl)cc(Cl)c(Cl)c1Cc1c(O)c(Cl)cc(Cl)c1Cl [HEXACHLOROPHENE]
ABSOLUTE BASOPHIL [1]: 0 CELLS/uL | ABSOLUTE EOSINOPHIL [1]: 92.33 CELLS/uL | ABSOLUTE LYMPHOCYTE [1]: 12247.5 CELLS/uL | ABSOLUTE MONOCYTE [1]: 389.67 CELLS/uL | ABSOLUTE SEGMENTED NEUTROPHIL [1]: 1320.5 CELLS/uL | BASOPHIL [1]: 0% | EOSINOPHIL [1]: 0.67% | ERYTHROCYTE COUNT [1]: 5.45 x10E6/uL | HEMATOCRIT [1]: 34.85% | HEMOGLOBIN [1]: 12.97 G/DL | LEUKOCYTE COUNT [1]: 14.05 x10E3/uL | LYMPHOCYTE [1]: 87.33% | MEAN CORPUSCULAR HEMOGLOBIN [1]: 23.78 pg | MEAN CORPUSCULAR HEMOGLOBIN CONCENTRATION [1]: 37.22 G/DL | MEAN CORPUSCULAR VOLUME [1]: 63.93 fL | MONOCYTE [1]: 2.67% | NEUTROPHIL [1]: 9.33% | NUCLEATED RED BLOOD CELLS [1]: 0 /100WBC | PLATELET COUNT [1]: 1174 x10E3/uL | ALANINE AMINOTRANSFERASE [1]: 48.83 u/L | ALBUMIN [1]: 4.23 G/DL | ALKALINE PHOSPHATASE [1]: 351.5 u/L | ASPARTATE AMINOTRANSFERASE [1]: 90 u/L | BLOOD UREA NITROGEN [1]: 15.33 mg/dL | CARBON DIOXIDE [1]: 23 mmol/L | CHLORIDE [1]: 103.5 MEQ/L | CHOLESTEROL [1]: 70.5 mg/dL | CREATINE PHOSPHOKINASE [1]: 651.83 u/L | CREATININE [1]: 0.22 mg/dL | GLUCOSE [1]: 180.67 mg/dL | LACTATE DEHYDROGENASE [1]: 165 u/L | LIPASE [1]: 9.33 u/L | PHOSPHORUS [1]: 12.03 mg/dL | POTASSIUM [1]: 6.17 MEQ/L | SODIUM [1]: 142.62 MEQ/L | TOTAL BILIRUBIN [1]: 0.2 mg/dL | TOTAL PROTEIN [1]: 5.73 G/DL | URIC ACID [1]: 1.77 mg/dL | ABSOLUTE BASOPHIL [2]: 0 CELLS/uL | ABSOLUTE EOSINOPHIL [2]: 0 CELLS/uL | ABSOLUTE LYMPHOCYTE [2]: 12736.67 CELLS/uL | ABSOLUTE MONOCYTE [2]: 253.5 CELLS/uL | ABSOLUTE SEGMENTED NEUTROPHIL [2]: 1193.17 CELLS/uL | BASOPHIL [2]: 0% | EOSINOPHIL [2]: 0% | ERYTHROCYTE COUNT [2]: 5.72 x10E6/uL | HEMATOCRIT [2]: 36.05% | HEMOGLOBIN [2]: 13.62 G/DL | LEUKOCYTE COUNT [2]: 14.18 x10E3/uL | LYMPHOCYTE [2]: 89.33% | MEAN CORPUSCULAR HEMOGLOBIN [2]: 23.83 pg | MEAN CORPUSCULAR HEMOGLOBIN CONCENTRATION [2]: 37.8 G/DL | MEAN CORPUSCULAR VOLUME [2]: 63.05 fL | MONOCYTE [2]: 1.83% | NEUTROPHIL [2]: 8.83% | NUCLEATED RED BLOOD CELLS [2]: 0 /100WBC | PLATELET COUNT [2]: 1322.17 x10E3/uL | ALANINE AMINOTRANSFERASE [2]: 48.83 u/L | ALBUMIN [2]: 4.27 G/DL | ALKALINE PHOSPHATASE [2]: 295.17 u/L | ASPARTATE AMINOTRANSFERASE [2]: 75.83 u/L | BLOOD UREA NITROGEN [2]: 15.5 mg/dL | CARBON DIOXIDE [2]: 30.5 mmol/L | CHLORIDE [2]: 102.33 MEQ/L | CHOLESTEROL [2]: 76.17 mg/dL | CREATINE PHOSPHOKINASE [2]: 205.5 u/L | CREATININE [2]: 0.2 mg/dL | GLUCOSE [2]: 149.67 mg/dL | LACTATE DEHYDROGENASE [2]: 124.5 u/L | LIPASE [2]: 10 u/L | PHOSPHORUS [2]: 10.93 mg/dL | POTASSIUM [2]: 6.59 MEQ/L | SODIUM [2]: 143.1 MEQ/L | TOTAL BILIRUBIN [2]: 0.2 mg/dL | TOTAL PROTEIN [2]: 6.05 G/DL | URIC ACID [2]: 1.45 mg/dL | ABSOLUTE BASOPHIL [3]: 0 CELLS/uL | ABSOLUTE EOSINOPHIL [3]: 0 CELLS/uL | ABSOLUTE LYMPHOCYTE [3]: 12277.33 CELLS/uL | ABSOLUTE MONOCYTE [3]: 275.33 CELLS/uL | ABSOLUTE SEGMENTED NEUTROPHIL [3]: 1214 CELLS/uL | BASOPHIL [3]: 0% | EOSINOPHIL [3]: 0% | ERYTHROCYTE COUNT [3]: 5.64 x10E6/uL | HEMATOCRIT [3]: 34.87% | HEMOGLOBIN [3]: 13.13 G/DL | LEUKOCYTE COUNT [3]: 13.77 x10E3/uL | LYMPHOCYTE [3]: 89.33% | MEAN CORPUSCULAR HEMOGLOBIN [3]: 23.3 pg | MEAN CORPUSCULAR HEMOGLOBIN CONCENTRATION [3]: 37.67 G/DL | MEAN CORPUSCULAR VOLUME [3]: 61.83 fL | MONOCYTE [3]: 2% | NEUTROPHIL [3]: 8.67% | NUCLEATED RED BLOOD CELLS [3]: 0 /100WBC | PLATELET COUNT [3]: 1307.67 x10E3/uL | ALANINE AMINOTRANSFERASE [3]: 41.67 u/L | ALBUMIN [3]: 4.47 G/DL | ALKALINE PHOSPHATASE [3]: 339.67 u/L | ASPARTATE AMINOTRANSFERASE [3]: 84 u/L | BLOOD UREA NITROGEN [3]: 18 mg/dL | CARBON DIOXIDE [3]: 24.67 mmol/L | CHLORIDE [3]: 102.67 MEQ/L | CHOLESTEROL [3]: 79.67 mg/dL | CREATINE PHOSPHOKINASE [3]: 217.33 u/L | CREATININE [3]: 0.21 mg/dL | GLUCOSE [3]: 142.33 mg/dL | LACTATE DEHYDROGENASE [3]: 343.67 u/L | LIPASE [3]: 10 u/L | PHOSPHORUS [3]: 13.23 mg/dL | POTASSIUM [3]: 6.86 MEQ/L | SODIUM [3]: 144.73 MEQ/L | TOTAL BILIRUBIN [3]: 0.23 mg/dL | TOTAL PROTEIN [3]: 6 G/DL | URIC ACID [3]: 2 mg/dL
